Data set [1] concerns Rattus norvegicus. Nature of the data set: Ratio of indomethacin ED50 to compound ED50 for po dosed rat assessed as inhibition of carrageenan-induced paw edema. The format is functional. A general note: The carrageenan paw model is a standard test of acute inflammation.
The test system of data set [2] is Rattus norvegicus. Nature of the data set: Antiinflammatory activity in po dosed rat assessed as inhibition of carrageenan-induced paw edema. The format is functional.
The nature of data set [3]: Gastrointestinal toxicity in po dosed rat assessed as induction of gastric irritation. The format is organism-based, Stomach. Conditions: in vivo, read-out: ID50 (the source's name).
Data set [4] can be described thus: Therapeutic index, ratio of ID50 for po dosed rat to ED50 for po dosed rat. In kind it is organism-based. Conditions: in vivo, read-out: TI.

One may read the ED50 as the dose at which the effect has come halfway, by size or by number of responders.

For the molecule `O=C(O)Cc1ccc2c(c1)C(=O)c1sccc1CO2`, in the data set with Rattus norvegicus [1], the “Ratio ED50” value was determined as 1.3. In the data set with Rattus norvegicus [2], the ED50 was 3.37 mg/kg. Besides, in data set [3], the TD50 turned out to be 33.7 mg/kg. The selectivity ratio in data set [4] worked out at 10.

For `O=C(O)Cc1ccc2c(c1)C(=O)c1ccccc1CO2` [ISOXEPAC], the median effective dose (ED50) with Rattus norvegicus [2] is 6.36 mg/kg. Further, the selectivity ratio in data set [4] turned out to be 13.

As to `COc1ccc2c(c1)c(CC(=O)O)c(C)n2C(=O)c1ccc(Cl)cc1` [INDOMETHACIN], the 50% effective dose (ED50) in the data set on Rattus norvegicus [2] came to 4.35 mg/kg. In addition, in data set [4], the selectivity ratio turned out to be 0.4.

Consider `O=C(O)Cc1ccc2c(c1)C(=O)c1occc1CO2`, for which, in the data set on Rattus norvegicus [2], the ED50 is 33.3 mg/kg.

Values taken from ChEMBL document CHEMBL3244058, “Dibenz[b,e]oxepinalkanoic acids as nonsteroidal antiinflammatory agents. 2. Dihydro-10-oxofuro-and -thieno[3,2-c][1]benzoxepin-8-acetic acids” (J Med Chem, 1977).
